Experimental data reported in patent US20130143929A1, “FUNGICIDAL IMIDAZOLES” (EI DU PONT DE NEMOURS AND COMPANY, priority 2010, published 2013).
Marks after values point to notes of the source that are not given here.

Columns and labels:
Type in all cases: in vivo
[1] = system: Puccinia recondite f. sp. tritici (the causal agent of wheat leaf rust); test: Test A: wheat leaf rust, preventive spray on wheat seedlings, visual disease rating; details: for Test A rating (100 = 100% disease control, 0 = no disease control relative to the controls): wheat leaf rust, preventive spray on wheat seedlings; for Test A rating (% disease control, wheat leaf rust): 100 = 100% disease control
Description: (§1) General protocol for preparing test suspensions for Tests A-D: the test compounds were first dissolved in acetone in an amount equal to 3% of the final volume and then suspended at the desired concentration (in ppm) in acetone and purified water (50/50 mix by volume) containing 250 ppm of the surfactant Trem® 014 (polyhydric alcohol esters). The resulting test suspensions were then used in Tests A-D. Spraying a 200 ppm test suspension to the point of run-off on the test plants was the equivalent of a rate of 800 g/ha.
The test suspension was sprayed to the point of run-off on wheat seedlings. The following day the seedlings were inoculated with a spore suspension of Puccinia recondite f. sp. tritici (the causal agent of wheat leaf rust) and incubated in a saturated atmosphere at 20° C. for 24 h, and then moved to a growth chamber at 20° C. for 7 days, after which time visual disease ratings were made.
(§2) Results for Tests A-E are given in Table A. In the Table, a rating of 100 indicates 100% disease control and a rating of 0 indicates no disease control (relative to the controls). A dash (—) indicates no test results. An asterisk “*” next to the rating value indicates a 40 ppm test suspension was used.

[2] = system: Septoria tritici (the causal agent of wheat leaf blotch); test: Test B: wheat leaf blotch, preventive spray on wheat seedlings, visual disease rating; details: for Test B rating (100 = 100% disease control, 0 = no disease control relative to the controls): wheat leaf blotch, preventive spray on wheat seedlings; for Test B rating (% disease control, wheat leaf blotch): 100 = 100% disease control
Description: as §1
(§3) The test suspension was sprayed to the point of run-off on wheat seedlings. The following day the seedlings were inoculated with a spore suspension of Septoria tritici (the causal agent of wheat leaf blotch) and incubated in a saturated atmosphere at 24° C. for 48 h, and then moved to a growth chamber at 20° C. for 19 days, after which time visual disease ratings were made.
as §2

[3] = system: Botrytis cinerea (the causal agent of tomato Botrytis); test: Test C: tomato Botrytis, preventive spray on tomato seedlings, visual disease rating; details: for Test C rating (100 = 100% disease control, 0 = no disease control relative to the controls): tomato Botrytis, preventive spray on tomato seedlings; for Test C rating (% disease control, tomato Botrytis): 100 = 100% disease control
Description: as §1
as §3, with “tomato” for “wheat”, “Botrytis cinerea” for “Septoria tritici”, “tomato Botrytis)” for “wheat leaf blotch)”, “20°” for “24°”, “24°” for “20°”, “3” for “19”
as §2

[4] = system: Blumeria graminis f. sp. tritici (also known as Erysiphe graminis f. sp. tritici, the causal agent of wheat powdery mildew); test: Test D: wheat powdery mildew, preventive spray on wheat seedlings, visual disease rating; details: for Test D rating (100 = 100% disease control, 0 = no disease control relative to the controls): wheat powdery mildew, preventive spray on wheat seedlings; for Test D rating (% disease control, wheat powdery mildew): 100 = 100% disease control
Description: as §1
The test suspension was sprayed to the point of run-off on wheat seedlings. The following day the seedlings were inoculated with a spore dust of Blumeria graminis f. sp. tritici, (also known as Erysiphe graminis f. sp. tritici, the causal agent of wheat powdery mildew) and incubated in a growth chamber at 20° C. for 8 days, after which time visual disease ratings were made.
as §2

[5] = asterisk: 40 ppm test suspension
[6] = no asterisk (standard test suspension concentration, not 40 ppm)
[7] = asterisk: 40 ppm test suspension, 0 = no control
[8] = no asterisk: standard test suspension concentration, 0 = no control relative to controls

| SMILES | Test A rating (100 = 100% disease control, 0 = no disease control relative to the controls) [1, 5] | Test B rating (100 = 100% disease control, 0 = no disease control relative to the controls) [2, 5] | Test C rating (100 = 100% disease control, 0 = no disease control relative to the controls) [3, 5] | Test D rating (100 = 100% disease control, 0 = no disease control relative to the controls) [4, 5] | Test A rating (100 = 100% disease control, 0 = no disease control relative to the controls) [1, 6] [%] | Test B rating (100 = 100% disease control, 0 = no disease control relative to the controls) [2, 6] [%] | Test C rating (100 = 100% disease control, 0 = no disease control relative to the controls) [3, 6] [%] | Test D rating (100 = 100% disease control, 0 = no disease control relative to the controls) [4, 6] [%] | other results |
| --- | --- | --- | --- | --- | --- | --- | --- | --- | --- |
| Cc1cc(F)ccc1C(O)c1cnc(C)n1-c1c(F)cc(Cl)cc1F (centres unmarked) [compound 109] | 99* % | 94* % | 0* % | 0* % | – | – | – | – | – |
| OC(c1ccc(Cl)cc1)c1c(Cl)nc(Cl)n1-c1ccc(Cl)cc1Cl (single isomer, unassigned) [compound 86] | – | – | – | – | 96 | 100 | 73 | 56 | – |
| COc1cc(F)c(-n2c(C)nc(Cl)c2C(O)c2ccc(F)cc2Cl)c(F)c1 (centres unmarked) [compound 403] | – | – | – | – | – | – | – | – | Test A rating (% disease control, wheat leaf rust) [1, 7]: 99* %; Test B rating (% disease control, wheat leaf blotch) [2, 7]: 100* %; Test C rating (% disease control, tomato Botrytis) [3, 7]: 8* %; Test D rating (% disease control, wheat powdery mildew) [4, 7]: 0* % |
| OC(c1ccc(F)cc1F)c1c(Br)nc(Cl)n1-c1c(F)cc(F)cc1Cl (centres unmarked) [compound 108] | 100* % | 100* % | 67* % | 99* % | – | – | – | – | – |
| Cc1nc(Cl)c(C(O)c2ccc(F)cc2Br)n1-c1c(F)cccc1Br (centres unmarked) [compound 68] | – | – | – | – | 100 | 100 | 100 | 96 | – |
| COc1ccc(C(O)c2cnc(C)n2-c2ccc(F)cc2F)c(F)c1 (racemic) [compound 283] | 41* % | 0* % | 0* % | 0* % | – | – | – | – | – |
| Cc1cc(F)ccc1C(O)c1c(Br)nc(C)n1-c1ccc(F)cc1Cl (centres unmarked) [compound 397] | – | – | – | – | – | – | – | – | Test A rating (% disease control, wheat leaf rust) [1, 8]: 100%; Test B rating (% disease control, wheat leaf blotch) [2, 8]: 100%; Test C rating (% disease control, tomato Botrytis) [3, 8]: 100%; Test D rating (% disease control, wheat powdery mildew) [4, 8]: 73% |
| Cc1nc(Cl)n(-c2ccc(F)cc2F)c1C(O)c1c(F)ccc(I)c1F (racemic) [compound 38] | – | – | – | – | 99 | 95 | 7 | 0 | – |
| Cc1nc(Br)c(C(O)c2c(F)cccc2F)n1-c1ccc(F)cc1Cl (centres unmarked) [compound 140] | – | – | – | – | 100 | 100 | 100 | 50 | – |
| OC(c1ccc(F)cc1Cl)c1c(Cl)nc(Cl)n1-c1c(F)cc(F)cc1Cl (centres unmarked) [compound 42] | – | – | – | – | 100 | 100 | 100 | 100 | – |
| Cc1ncn(-c2ccc(F)cc2Cl)c1C(O)c1ccc(Cl)cc1Cl (racemic) [compound 33] | – | – | – | 0* % | 100 | 100 | 100 | – | – |
| Cc1ncc(C(O)c2c(F)cc(Cl)cc2F)n1-c1ccc(F)cc1F (racemic) [compound 271] | 0* % | 17* % | 0* % | 0* % | – | – | – | – | – |
| COc1cc(F)c(C(O)c2c(Br)ncn2-c2ccc(F)cc2Cl)c(F)c1 (racemic) [compound 232] | 100* % | 59* % | – | 0* % | – | – | – | – | – |
| Cc1nc(Cl)n(-c2ccc(Cl)cc2Cl)c1C(O)c1c(F)ccc(Br)c1Cl (racemic) [compound 37] | – | – | – | – | 98 | 100 | 91 | 21 | – |
| Cc1cccc(C)c1-n1c(C)nc(Cl)c1C(O)c1ccc(F)cc1Cl (racemic) [compound 226] | – | – | – | – | 94 | 98 | 6 | 0 | – |
| COc1ccc(C(O)c2c(C)nc(Cl)n2-c2ccc(Cl)cc2Cl)c(Cl)c1 (racemic) [compound 219] | 99* % | 100* % | 98* % | 21* % | – | – | – | – | – |
| COc1ccc(C(O)c2c(Cl)nc(C)n2-c2c(F)cccc2Cl)c(Cl)c1 (racemic) [compound 278] | 100* % | 100* % | 100* % | 97* % | – | – | – | – | – |
| COc1ccc(C(O)c2c(C)nc(Cl)n2-c2c(F)cccc2Br)c(F)c1 (centres unmarked) [compound 211] | 100* % | 100* % | 100* % | 98* % | – | – | – | – | – |
| Cc1nc(Cl)c(C(O)c2ccc(F)cc2Br)n1-c1ccc(F)cc1Cl (racemic) [compound 272] | 100* % | 100* % | 93* % | 21* % | – | – | – | – | – |
| OC(c1ccc(F)cc1F)c1c(Br)nc(Br)n1-c1c(F)cc(F)cc1Cl (centres unmarked) [compound 107] | – | – | – | – | 100 | 100 | 100 | 94 | – |
| Cc1cc(F)ccc1C(O)c1c(Cl)nc(Cl)n1-c1ccc(F)cc1F (centres unmarked) [compound 77] | – | – | – | – | 100 | 100 | 94 | 95 | – |
| Cc1nc(Cl)n(-c2ccc(F)cc2Cl)c1C(O)c1c(F)ccc(Br)c1Cl (racemic) [compound 34] | – | – | – | – | 99 | 98 | 99 | – | – |
| COc1cc(F)c(-n2c(C(O)c3ccc(F)cc3F)cnc2C)c(F)c1 (centres unmarked) [compound 404] | – | – | – | – | – | – | – | – | Test A rating (% disease control, wheat leaf rust) [1, 8]: 98%; Test C rating (% disease control, tomato Botrytis) [3, 8]: 0%; Test D rating (% disease control, wheat powdery mildew) [4, 8]: 0% |
